Test results reported in patent publication US20090232735A1, “USE OF FRUCTOSE-BASED THERAPIES FOR THE TREATMENT OF CANCER” (CEDARS-SINAI MEDICAL CENTER, priority 2005, published 2009).
“Also recorded” adds a separate entry of the source.

System: PANC-1 pancreatic cancer cells
Experiment: PANC-1 pancreatic cancer cell proliferation (MTS assay)
Format: cell-based, human
Conditions: oxythiamine 0.5 mM, 72 h, MTS
Procedure: FIG. 13 depicts higher proliferation rates in pancreatic cancer cells in fructose (5.5 mM) than glucose (5.5 mM) containing medium in accordance with an embodiment of the present invention. PANC-1 cells were pre-incubated in 2 mM glucose, after which they were plated in 5.5 mM fructose or glucose for times between 12-72 h, after which proliferative rates were measured using an MTS assay. Proliferative rates are expressed as the percentage difference between cells grown in 5.5 mM fructose versus 5.5 mM glucose. p<0.01 for times>48 h.
FIG. 14 depicts proliferation rates of pancreatic cells in different fructose or glucose concentrations in accordance with an embodiment of the present invention. PANC-1 cells were plated in a range of fructose or glucose concentrations (5-25 mM) for 72 h, after which proliferative rates were measured using an MTS assay. *, p<0.05 for concentrations between 5-25 mM fructose versus glucose.
FIG. 17 depicts cell proliferation regardless of co-existent glucose concentration in accordance with an embodiment of the present invention. PANC-1 cells were pre-incubated in 2 mM glucose prior to treatment with a range of concentrations (0-15 mM) mixed with a range of fructose concentrations (0-15 mM) for 72 h. PANC-1 cell proliferative rates were then measured using the MTS assay (absorbance in arbitrary units).
FIG. 35 depicts inhibition of pancreatic cancer PANC-1 cell proliferation by incubation with the transketolase inhibitor, oxythiamine (0.5-2 mM) for 72 h in accordance with an embodiment of the present invention. Proliferative rates were measured using the MTS proliferation assay.
Standard media for maintenance cancer cell line culture, including pancreatic cancer cells such as PANC-1 cells contain either low—(5-7 mM), or high—(12-25 mM) glucose concentrations. Clearly, apart from the setting of hyperglycemia, as in patients with diabetes, the glucose concentrations in which pancreatic cancer cells are maintained in vitro are much higher than normal physiological conditions, which range between 2-5 mM glucose. […] Therefore, the inventors first pre-treated the pancreatic cancer cells overnight in standard DMEM medium containing low physiological glucose concentrations (2 mM glucose), and standard 10% fetal bovine serum. The pancreatic cancer cells were then incubated for times between 12, and 96 hours in standard DMEM medium containing 10% fetal bovine serum, and 5.5 mM glucose or 5.5 mM fructose. Proliferative rates were then measured in replicate (minimum of 6) aliquot wells of the pancreatic cancer cells, and the change (expressed as percent increase) in proliferative rates compared between cells grown in glucose, or fructose containing medium.
This first result intrigued the inventors, but given there is little documentation regarding physiological fructose concentrations, the inventors first considered that the “apparent” pro-proliferative effects of fructose were simply a consequence of the highly stylized in vitro experimental conditions, and that if the pancreatic cancer cells were cultured in higher glucose concentrations, this would result in similar proliferative rates to those the inventors observed following culture in 5.5 mM fructose. Therefore, in the next experiments, the inventors compared proliferative rates of the PANC-1 pancreatic cancer cells following culture for 72 h in a range of fructose, and glucose concentrations (2-25 mM). This timepoint was chosen as the inventors had seen maximal pancreatic cancer cell proliferation in 5.5 mM fructose at 72 h. […] While not wishing to be bound by any particular theory, the inventors believe that this latter finding may be because the PANC-1 cells are proliferating at close to maximal capacity by 72 h, once they are exposed to comparatively low fructose concentrations (5 mM). MTS assay was employed to measure pancreatic cancer cell proliferative rates, which utilizes mitochondrial oxidation to quantify cell proliferation. […]

## Cc1ncc(C[n+]2csc(CCO)c2C)c(=O)[nH]1 [oxythiamine, reference compound]
5.5 mM fructose
  fructose-mediated increase in pancreatic cancer cell proliferation: virtually abolished; also recorded: almost completely abrogate
  glucose-induced and fructose-induced PANC-1 proliferation: inhibited
